Source: US20230414775A1, “TUBULYSINS AND PROTEIN-TUBULYSIN CONJUGATES” (priority 2021, published 2023)
Like-named read-outs stand apart in the source and are kept apart here.

Columns and labels:
[1] = tested on: HCT15 cells; assay: HCT15 anti-proliferation / cell killing assay (CellTiter-Glo), with or without verapamil; assay type: cell-based, human; settings: Homo sapiens
Experimental: The cell line used in the anti-proliferation assays was HCT15, a human colon, colorectal carcinoma cell line. The HCT15 cells were grown in RPMI medium 1640+10% FBS. To run the assay, the cells (40 μL, 400 cells) were added to each well in a 384-well plate and incubated for twenty-four hours at 37° C. with 5% CO2. One hour before adding compounds, freshly dilute Verapamil to 0.2 mg/ml in ddH2O. Add 1 μL/well diluted Verapamil to Verapamil treatment wells and 1 μL/well ddH2O to the non-Verapamil treatment wells. Return plates to the incubator at 37° C. with 5% CO2. Then the cells were treated with test compounds at various concentrations using HPD300, and then normalize the DMSO to 0.5%. The control wells contained cells and the medium but lack the test compounds. The plates were incubated for 120 hours at 37° C. with 5% CO2. CTG reagent was then added to the wells (25 μL). After the plates were shaken for 10 min and then incubated for 10 min at room temperature, paste the clear bottom with white back seal and record luminescence with Envision. The inhibition % was calculated according to the following equation: inhibition %=[1−(assay-blank)/(control-blank)]×100.

[2] = tested on: SK-BR-3 cells; assay: SK-BR-3 anti-proliferation assay for payloads (CellTiter-Glo); assay type: cell-based; settings: Homo sapiens, free payload, 120-144 h, read-out: SKBR3
Experimental: The cell line used in the anti-proliferation assays was SK-BR-3, a human breast, adenocarcinoma (pleural effusion) cell line. The cells were grown in McCoy's 5a Medium+10% FBS. To run the assay for payloads, the cells (40 μL, 700 cells) were added to each well in a 384-well plate and incubated for 24 hours at 37° C. with 5% CO2. Then the cells were treated with test compounds at various concentrations using HPD300, and then normalize the DMSO to 0.5%. The control wells contain cells and the medium but lack the test compounds. The plates were incubated for 120 h at 37° C. with 5% CO2. To run the assay for ADCs and some key payloads, the cells (80 μL, 1000 cells) were added to each well in a 96-well plate and incubated for twenty-four hours at 37° C. with 5% CO2. Next, the ADCs or payloads were diluted with Opti-Mem with 0.1% BSA. The cells were treated with test compounds or ADCs (20 μL) at various concentrations in appropriate cell culture medium (total volume, 0.1 mL). The final concentration of DMSO was adjusted to 0.2% and the Opti-Mem with 0.1% BSA was adjusted to 5%. The control wells contained cells and the medium but lacked the test compounds. The plates were incubated for 144 h at 37° C. with 5% CO2. CTG reagent was then added to the wells (25 μL/384-well or 100 μL/96-well). After the plates were shaken for 10 min and then incubated for 10 min at room temperature, paste the clear bottom with white back seal and record luminescence with Envision. The inhibition % was calculated according to the following equation: inhibition %=[1-(assay-blank)/(control-blank)]×100.

[3] = HCT15 cells, no verapamil, 120 h (5 days), read-out: HCT-15
[4] = HCT-15, HCT15 cells pre-treated with verapamil, 120 h, read-out: HCT-15 with verapamil

Row | Compound | IC50 [1, 3] | IC50 [1, 4] | IC50 [2]
1 | CCCCCCN(C(=O)[C@@H](NC(=O)[C@@]1(C)CCCN1CCN)[C@@H](C)CC)[C@H](C[C@@H](OC(C)=O)c1nc(C(=O)N[C@@H](Cc2ccc(O)cc2)CC(C)(C)C(=O)O)cs1)C(C)C (mixture of isomers) [PA5, (S)-4-(2-((1RS,3RS)-1-acetoxy-3-((2SR,3SR)-2-((R)-1-(2-aminoethyl)-2-methylpyrrolidine-2-carboxamido)-N-hexyl-3-methylpentanamido)-4-methylpentyl)thiazole-4-carboxamido)-5-(4-hydroxyphenyl)-2,2-dimethylpentanoic acid] | > 100 nM | 15.9 nM | 18.3 nM
2 | CCCCCCN(C(=O)[C@@H](NC(=O)[C@H]1CCCCN1)[C@@H](C)CC)[C@H](C[C@@H](OC(C)=O)c1nc(C(=O)N[C@@H](Cc2ccc(NCC(=O)O)cc2)CC(C)(C)C(=O)O)cs1)C(C)C (mixture of isomers) [PA17, Rac-(R)-4-(2-((1S,3S)-1-acetoxy-3-((2R,3R)—N-hexyl-3-methyl-2-((S)-piperidine-2-carboxamido)pentanamido)-4-methylpentyl)thiazole-4-carboxamido)-5-(4-((carboxymethyl)amino)phenyl)-2,2-dimethylpentanoic acid] | 1.39 nM | 0.09 nM | 0.131 nM
3 | CCCCCCN(C(=O)[C@@H](NC(=O)[C@H]1CCCCN1)[C@@H](C)CC)[C@H](C[C@@H](OCCCO)c1nc(C(=O)N[C@@H](Cc2ccc(NCC(=O)O)cc2)CC(C)(C)C(=O)O)cs1)C(C)C (mixture of isomers) [PA23, Rac-(R)-5-(4-((carboxymethyl)amino)phenyl)-4-(2-((1S,3S)-3-((2R,3R)—N-hexyl-3-methyl-2-((S)-piperidine-2-carboxamido)pentanamido)-1-(3-hydroxypropoxy)-4-methylpentyl)thiazole-4-carboxamido)-2,2-dimethylpentanoic acid] | > 1000 nM | > 1000 nM | 9.35 nM
4 | CCCCCCN(C(=O)[C@@H](NC(=O)[C@H]1CCCCN1C)[C@@H](C)CC)[C@H](C[C@@H](OC(=O)NCCOCCOCCO)c1nc(C(=O)N[C@@H](Cc2ccc(N)c(F)c2)CC(C)(C)C(=O)O)cs1)C(C)C (mixture of isomers) [PA25, (S)-5-(4-amino-3-fluorophenyl)-4-(2-((3RS,6SR,8SR)-3-((RS)-sec-butyl)-5-hexyl-19-hydroxy-6-isopropyl-1-((R)-1-methylpiperidin-2-yl)-1,4,10-trioxo-9,14,17-trioxa-2,5,11-triazanonadecan-8-yl)thiazole-4-carboxamido)-2,2-dimethylpentanoic acid] | 0.477 nM | 0.158 nM | 1.6 nM
5 | CCCCCCN(C(=O)[C@@H](NC(=O)[C@@]1(C)CCCN1C(=O)CN)[C@@H](C)CC)[C@H](C[C@@H](OC(C)=O)c1nc(C(=O)N[C@@H](Cc2ccc(N)c(F)c2)CC(C)(C)C(=O)O)cs1)C(C)C [PA1, (4S)-4-({2-[(1R,3R)-1-(acetyloxy)-3-[(2S,3S)-2-{[(2R)-1-(2-aminoacetyl)-2-methylpyrrolidin-2-yl]formamido}-N-hexyl-3-methylpentanamido]-4-methylpentyl]-1,3-thiazol-4-yl}formamido)-5-(4-amino-3-fluorophenyl)-2,2-dimethylpentanoic acid] | > 100 nM | > 100 nM | –
6 | CCCCCCN(C(=O)[C@@H](NC(=O)[C@@]1(C)CCCN1C(=O)CN)[C@@H](C)CC)[C@H](C[C@@H](OC(C)=O)c1nc(C(=O)N[C@@H](Cc2ccc(O)cc2)CC(C)(C)C(=O)O)cs1)C(C)C [PA2, (4S)-4-({2-[(1R,3R)-1-(acetyloxy)-3-[(2S,3S)-2-{[(2R)-1-(2-aminoacetyl)-2-methylpyrrolidin-2-yl]formamido}-N-hexyl-3-methylpentanamido]-4-methylpentyl]-1,3-thiazol-4-yl}formamido)-5-(4-hydroxyphenyl)-2,2-dimethylpentanoic acid] | > 100 nM | – | –
